What was measured:
[1] = test system: reelin mRNA (RELN), a stellate cell target; test: Reelin (RELN) mRNA knock-down in liver after IV administration of siRNA LNP (QuantiGene, RELN:GAPD mRNA ratio); type: in vivo, Balb/C mice; conditions: for reelin mRNA knock-down, activity at high dose: 1 mg/kg dose and greater
Procedure: The lipid solution contained 4 components: a PEG-conjugated lipid, an ionizable lipid, cholesterol, and a phospholipid (e.g., DSPC). Lipid stocks were prepared using the lipid identities and molar ratios as described. The siRNA was diluted in 100 mM acetate, pH 4 buffer to prepare lipid nanoparticles (LNP) at a total lipid to siRNA weight ratio of approximately 10:1 to 20:1. Equal volumes of the lipid and nucleic acid solutions were blended at a flow rate of 400 mL/min through a T-connector, and diluted into PBS, pH 7.4. The ethanol was then removed and the external buffer replaced with Tris/NaCl buffer by dialysis. Following dialysis, the formulations were concentrated using VivaSpin concentrator units (MWCO 100,000) and filtered through a 0.2 µm pore sterile filter. Nucleic acid concentration was determined by the RiboGreen assay. Particle size and polydispersity were determined using a Malvern Nano Series Zetasizer.
Generally, the LNP formulations were injected intravenously at 0.025 mg/kg to female Balb/C mice (5-8 weeks old) to measure activity of the HSC-LNP. Just prior to injection, the siRNA LNP stocks were filtered and diluted down to the required dosing concentration. […] Half the left lateral lobe of the liver was collected into 1.5 mL RNALater and stored at 2-8° C. overnight. The next day, an approximately 20-25 mg piece of liver was homogenized and the liver lysate used in a QuantiGene Assay, testing for relative levels of mouse target mRNA and GAPDH expression. Data from each animal was normalized to the liver weight used in the assay, and then relative to the GAPDH signal; data is reported as the average % knockdown of each group (where the PBS control group is 100% gene expression, 0% knockdown).

[2] = Tolerability assessment: serum liver enzyme levels (ALT/AST) after IV administration of LNP; type: in vivo, Balb/C mice; conditions: FIG. 4; 24 hours following IV administration of LNP; 0.03, 1, 3 mg/kg; relative to comparator lipid
Procedure: Generally, the LNP formulations were injected intravenously at ~0.03 to 3 mg/kg to female Balb/C mice (5-8 weeks old) to assess tolerability of the HSC-LNP. Just prior to injection, the siRNA LNP stocks were filtered and diluted down to the required dosing concentration. At 2 h post-treatment, blood was collected via tail nicks and processed to plasma (for cytokine analysis by ELISA). At the terminal timepoint (24 h post-dose), blood was collected by cardiac puncture (target ≥ 800 µL) and sent to IDEXX for CRES 15 panel analysis (CBC/Diff & Clin Chem analysis). Briefly, blood (~300 uL) was collected into EDTA microtainer tubes, inverted 10x to mix the K2EDTA whole blood sample, and immediately stored at 4° C. to await same-day shipment to for hematology analysis. The remaining blood volume (~500 uL) was collected into serum separator tubes and inverted 5× to mix the SST sample, then allowed to clot for 1-1.5 h at room temp. The blood samples were centrifuged, and serum was collected for clinical chemistry analysis.

[3] = FIG. 3, 24 hours following IV administration of LNP

CCCCC/C=C\CCCC(=O)OC(CCC/C=C\CCCCC)C(CCC/C=C\CCCCC)OC(=O)CCCCCN(C)C (stereo not shown) [representative lipid of the invention]
knock-down as indicated by the RELN:GAPD mRNA ratio ([1]; FIG. 1, 0.1 mg/kg, versus comparator lipid and PBS): excellent knock-down | reelin mRNA knock-down, potency relative to comparator lipid ([1]; FIG. 2, 48 hours following IV administration of LNP, Balb/C mice (n=4)): equivalent potency to a comparator lipid at 4-fold lower dose | reelin mRNA knock-down, activity at high dose [1, 3]: Saturating activity | reelin mRNA knock-down, potency relative to comparator lipid ([1]; FIG. 3, 24 hours following IV administration of LNP, low dose of 0.03 mg/kg): significantly more potent than the comparator lipid | potency relative to comparator lipid, as restated in the tolerability figure ([1]; FIG. 4 legend, no dose stated): significantly more potent | liver enzyme levels (ALT/AST) in serum [2]: slightly higher liver enzyme levels relative to the comparator lipid

CCCCC/C=C\CCCC(CCC/C=C\CCCCC)C(CCC/C=C\CCCCC)OC(=O)CCCCCN(C)C (stereo not shown) [compound 100, reference compound]
reelin mRNA knock-down, activity at high dose [1, 3]: Saturating activity

From patent US20230150926A1, “CATIONIC LIPIDS FOR LIPID NANOPARTICLE DELIVERY OF THERAPEUTICS TO HEPATIC STELLATE CELLS” (GENEVANT SCIENCES GMBH, priority 2020, published 2023)
